From patent EP0334244A2, “Bradykinin Antagonist Peptides” (THE PROCTER & GAMBLE COMPANY, priority 1988, dated 1989)
Where “and” joins values, the source holds several entries; their conditions need not be identical. Equal values may be shown once. Non-standard residues stand in square brackets, D forms with d. Residues, ends and D or L forms follow the SMILES beside them. Hyp = O=C(O)[C@@H]1C[C@@H](O)CN1

What was measured:
Bradykinin receptor = molecular target: T1, Bradykinin receptor (Mus musculus, UniProt P32299); assay: Cell culture method: inhibition of bradykinin-induced increase in cytosolic free calcium in fura-2 loaded NG108-15 cells; format: cell-based; conditions: for agonist / antagonist activity in this assay: result in words
T1 construct: suspensions of cultured NG108-15 cells loaded with the Ca²⁺-sensitive fluorescent indicator fura-2; endogenous in cells; host or cells: NG108-15 cells (University of California at San Francisco, Cell Culture Facility)
T1 sequence (P32299 1-392): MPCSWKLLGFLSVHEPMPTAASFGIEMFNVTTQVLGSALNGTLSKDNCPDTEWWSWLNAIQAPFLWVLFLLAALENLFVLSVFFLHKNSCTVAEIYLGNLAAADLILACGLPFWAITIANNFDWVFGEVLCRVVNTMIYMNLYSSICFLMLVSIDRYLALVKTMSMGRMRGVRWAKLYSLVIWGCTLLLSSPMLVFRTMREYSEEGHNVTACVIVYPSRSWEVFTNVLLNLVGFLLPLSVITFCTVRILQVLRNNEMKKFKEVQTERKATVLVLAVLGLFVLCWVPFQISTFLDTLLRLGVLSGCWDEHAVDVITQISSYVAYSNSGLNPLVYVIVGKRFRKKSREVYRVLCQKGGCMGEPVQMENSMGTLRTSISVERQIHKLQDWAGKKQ
Protocol: In many different tissues and isolated cell populations, bradykinin induces a receptor mediated rise in the concentration of cytosolic free calcium ([Ca²⁺]i). In cultured NG108-15 neuronal cells (University of California at San Francisco, Cell Culture Facility, San Francisco, California), bradykinin increases [Ca²⁺]i in a dose dependent manner from a basal concentration of about 260 nM to approximately 1000 nM at a maximally effective concentration of bradykinin (1 X 10⁻⁶M). The half maximally effective concentration (EC₅₀) of bradykinin is 3 X 10⁻⁹M. Bradykinin receptor antagonist potency is evaluated by determining the concentration of antagonist required to inhibit by 50% (IC₅₀) the increase in [Ca²⁺]i induced by 1 X 10⁻⁹M bradykinin (Bachem, Torrance, CA). NG108-15 cells are cultured in […] Corning flasks (Fisher Scientific, Cincinnati, OH) in Dulbecco's modified minimal essential medium (high glucose; Gibco, Grand Island, NY) containing 5% fetal bovine serum (Hyclone, Logan, UT) and HAT (hypoxanthine-aminopterin-thymidine, Sigma, St. Louis, MO). The concentration of cytosolic free Ca²⁺ ([Ca²⁺]i) is measured in suspensions of cultured NG108-15 cells loaded with the Ca²⁺-sensitive fluorescent indicator fura-2 essentially as described by Osugi et al. (Journal Pharmacol. Exp. Ther., Vol. 240, (1987), pp. 617-622). Flasks of confluent cells are incubated for 60 minutes at 37°C in 20 mls of HEPES-buffered saline [140 mM NaCl, 5.4 mM KCl, 0.8 mM MgSO₄, 1.0 mM CaCl₂, 20 mM HEPES (N-2-. hydroxyethylpiperazine-N′-2-ethanesulfonic acid; Behring Diagnostics, LaJolla, CA), 10 mM glucose, 0.25% bovine serum albumin (Cat. #A-4503; Sigma Chemical Co., St. Louis, MO)] containing fura-2 acetoxymethyl ester (Molecular Probes, Inc., Eugene, OR) at a final concentration of 2 µM. The flasks are then washed twice with 30 mls of HEPES-buffered saline and the cells detached from the flasks in 15 mls of HEPES-buffered saline. The cell suspension is centrifuged at 25°C for 5 minutes at 350 x g and the cell pellet resuspended to a final volume of approximately 10 ml of HEPES-buffered saline/flask. The cell suspension is maintained at room temperature prior to use. The fluorescence of the fura-2 loaded NG108-15 cells is measured at an excitation wavelength of 340 nm (10 nM slit) and an emission wavelength of 500 nm (10 nM slit) in a Perkin-Elmer LS-5 fluorescence spectrophotometer fitted with a magnetic stirrer and a thermostatted cell holder. An aliquot of the cell suspension (1.37 ml) is placed in a cylindrical glass cuvette (internal diameter of 8 mm) containing a teflon coated stir bar and warmed to 37°C in a water bath. After 5 minutes, the cuvette is placed in the cell holder of the fluorometer and stirring is initiated just prior to the addition of a test sample. Routinely, a test sample (0.014 ml of a 100-fold concentration solution) is added to the cuvette 30 seconds prior to the addition of 1 X 10⁻⁹ M bradykinin. Fluorescence is recorded continuously during the addition of the test sample and bradykinin. Following completion of the fluorescence measurements, the cells are lysed with Triton X-100 at a final concentration of 10% (v/v) and the fluorescence of the Ca²⁺ saturated fura-2 (Fmax; fluorescence in the presence of 1 mM Ca²⁺) and the Mn²⁺-quenched fura-2 (autofluorescence (AF); fluorescence in the presence of 2 mM Mn²⁺) determined. […]

guinea pig ileum = assay: Guinea pig ileum assay (muscle contraction); conditions: negative log of the dose causing half maximal contraction
Protocol: The bradykinin antagonists are assayed on guinea pig ileum for inhibition of the muscle-contracting activity of bradykinin, according to the commonly accepted assay method for bradykinin and related kinins as described in Stewart, J.M., "Chemistry and Biological Activity of Peptides Related to Bradykinin", Chapter V of Bradykinin, Kallidin and Kallikrein, (Handbook of Expt. Pharmacol.), E. G. Erdoes (ed.), Vol 25, Springer Verlag (pub.), 1970, pp. 242-243. The inhibition potencies are determined on isolated guinea pig ileum, according to the commonly accepted manner described for antagonists of biologically active compounds in Schild, H.O., "pA, a New Scale for the Measurement of Drug Antagonism", Br. J. Pharmacol., Vol. 2, No. 3 (1947), pp. 189-206). In the assay, a dose-response curve is determined for the reference substance bradykinin. The dose of bradykinin which produces a half maximal contraction of tissue is the ED₅₀ dose. An amount of bradykinin equivalent to twice the ED₅₀ dose is administered to the tissue 30 seconds after the start of incubation of the tissue with a dose of antagonist. Doses of antagonist are increased in this protocol until pre-incubation with a dose of antagonist reduces the contraction in response to the double ED₅₀ dose of bradykinin to response of a single ED₅₀ dose of bradykinin. […]

Male CF-1 mice = assay: Mouse abdominal constriction test (phenylquinone-induced writhing); format: in vivo; conditions: for Change from Control (%): I.P.; for bradykinin agonist / antagonist activity in the assay: result in words, mouse abdominal constriction assay
Protocol: Compounds of the present invention are tested for analgesic activity using the mouse abdominal constriction assay. This assay is described in Hendershot, L.C., & J. Forsaith, "Antagonism of the Frequency of Phenylquinone-induced Writhing in the Mouse by Weak Analgesics and Nonanalgesics", J. Pharmacol., Vol. 125, (1959), pp. 237-240, and in Methods in Narcotics Research, S. Ehrenpreis and A. Neidle, (eds.), Marcel Dekker, Inc., New York (pub.), 1975, pp. 64-65, the disclosures of both these references being incorporated herein in their entirety by reference.
Male CF-1 mice (Charles River Breeding Laboratories, Inc.), weighing approximately 20 grams and food fasted overnight, are used in these assays. Test compounds are prepared for intraperitoneal (i.p.) injection, with compounds of the present invention being prepared in distilled deionized water so that the appropriate dose is given in 0.2 mls to a 20 gram mouse.
An i.p. injection of 0.02% phenylquinone (2.5 mg/kg) is given at a concentration of 0.25 ml/20 grams body weight. Five minutes later the mice receive an i.p. injection of test compound. Five minutes after the i.p. injection of test compound, the number of full body writhes are counted for the succeeding ten minutes. Percent analgesia in this assay is calculated as follows: [formula]
The mouse abdominal constriction assay was used to measure the antagonist activity of peptides of the present invention and related peptides as shown in Table 2: Table 2

Row | Compound | agonist / antagonist activity in this assay (Bradykinin receptor) | bradykinin agonist / antagonist activity in the assay (Male CF-1 mice) | Change from Control (%) (Male CF-1 mice; Dose 50 mg/kg) | further results
1 | N=C(N)NCCC[C@@H](N)C(=O)N[C@@H](CCCNC(=N)N)C(=O)N1CCC[C@H]1C(=O)N[C@@H](CC(N)=O)C(=O)NCC(=O)N[C@@H](Cc1ccccc1)C(=O)N[C@@H](CO)C(=O)N[C@H](Cc1ccccc1)C(=O)N[C@@H](Cc1ccccc1)C(=O)N[C@@H](CCCNC(=N)N)C(=O)O [Compound 6, H-DArg-Arg-Pro-Asn-Gly-Phe-Ser-DPhe-Phe-Arg-OH] (H-[dR]RPNGFS[dF]FR-OH) | Compounds 2 and 6 are peptides of the present invention and both exhibit only antagonist (no agonist) activity in this assay. |  |  | 
2 | bradykinin (RPPGFSPFR; Bradykinin; UniProt P01042 381-389, looked up) [naturally occurring agonist nonapeptide] |  |  |  | [Ca²⁺]i at maximally effective concentration (Bradykinin receptor; 1 X 10⁻⁶M bradykinin, basal concentration about 260 nM): approximately 1000 nM; pD2 value (guinea pig ileum): 7.4
3 | N=C(N)NCCC[C@H](NC(=O)[C@H](Cc1ccccc1)NC(=O)[C@@H](Cc1ccccc1)NC(=O)[C@H](CO)NC(=O)[C@H](Cc1ccccc1)NC(=O)CNC(=O)[C@@H]1C[C@@H](O)CN1C(=O)[C@@H]1CCCN1C(=O)[C@@H](N)CCCNC(=N)N)C(=O)O [Compound 1, H-Arg-Pro-Hyp-Gly-Phe-Ser-DPhe-Phe-Arg-OH, reference compound] (H-RP[Hyp]GFS[dF]FR-OH) | high agonist (bradykinin-like) activity | bradykinin agonist |  | IC₅₀ (Bradykinin receptor; inhibition by 50% of the increase in [Ca²⁺]i induced by 1 X 10⁻⁹M bradykinin): Partial Agonist*; Change from Control (%) (Male CF-1 mice; Dose 25 mg/kg, negative value = agonist): -31%
4 | H-DArg-Arg-Pro-Hyp-Gly-Phe-Ser-DPhe-Phe-Arg-OH [Compound 5] | small amount of agonist activity |  |  | agonist activity (Bradykinin receptor; printed beside the IC₅₀): 10%
5 | N=C(N)NCCC[C@H](NC(=O)[C@H](Cc1ccccc1)NC(=O)[C@@H](Cc1ccccc1)NC(=O)[C@H](CO)NC(=O)[C@H](Cc1ccccc1)NC(=O)[C@H]1CCCN1C(=O)[C@H](CC(N)=O)NC(=O)[C@@H]1CCCN1C(=O)[C@@H](N)CCCNC(=N)N)C(=O)O [Compound 3, H-Arg-Pro-Asn-DPro-Phe-Ser-DPhe-Phe-Arg-OH] (H-RPN[dP]FS[dF]FR-OH) |  | bradykinin antagonist activity | 72% and 61% | 
6 | H-Arg-Pro-Aap-Gly-Phe-Ser-DPhe-Phe-Arg-OH [Compound 4] |  | bradykinin antagonist activity | 46% | 
7 | N=C(N)NCCC[C@H](NC(=O)[C@H](Cc1ccccc1)NC(=O)[C@@H](Cc1ccccc1)NC(=O)[C@H](CO)NC(=O)[C@H](Cc1ccccc1)NC(=O)CNC(=O)[C@H](CC(N)=O)NC(=O)[C@@H]1CCCN1C(=O)[C@@H](N)CCCNC(=N)N)C(=O)O [Compound 2, H-Arg-Pro-Asn-Gly-Phe-Ser-DPhe-Phe-Arg-OH] (H-RPNGFS[dF]FR-OH) | Compounds 2 and 6 are peptides of the present invention and both exhibit only antagonist (no agonist) activity in this assay. | bradykinin antagonist activity | 57% | 
